Test results taken from ChEMBL document CHEMBL5647694, “Novel orally bioavailable EZH1/2 dual inhibitors with greater antitumor efficacy than an EZH2 selective inhibitor” (Cancer Sci, 2017).

What was measured:
[1] = target: Platelet-derived growth factor receptor beta (Homo sapiens) (UniProt P09619); assay: Inhibition of N-terminal GST-tagged human PDGFR-beta cytoplasmic domain (557 to 1106 residues) expressed in baculovirus-infected Sf21 cells using CSKtide as substrate at 1 uM in presence of ATP by Mobility shift assay
[2] = target: MAP/microtubule affinity-regulating kinase 3 (Homo sapiens) (UniProt P27448); assay: Inhibition of N-terminal GST-fused full length human MARK3 (1 to 729 residues) expressed in baculovirus expression system using CHKtide as substrate at 1 uM in presence of ATP by Mobility shift assay
[3] = target: Discoidin domain-containing receptor 2 (Homo sapiens) (UniProt Q16832); assay: Inhibition of N-terminal GST-fused human DDR2 cytoplasmic domain (422 to 855 residues) expressed in baculovirus-infected Sf21 cells using IRS1 as substrate at 1 uM in presence of ATP by Mobility shift assay
[4] = target: Tyrosine-protein kinase Blk (Homo sapiens) (UniProt P51451); assay: Inhibition of N-terminal GST-fused full length human BLK (1 to 505 residues) expressed in baculovirus-infected Sf21 cells using Srctide as substrate at 1 uM in presence of ATP by Mobility shift assay
[5] = target: Misshapen-like kinase 1 (Homo sapiens) (UniProt Q8N4C8); assay: Inhibition of N-terminal GST-fused human MINK catalytic domain (1 to 314 residues) expressed in baculovirus expression system using Modified Erktide as substrate at 1 uM in presence of ATP by Mobility shift assay
[6] = target: Mitogen-activated protein kinase kinase kinase kinase 2 (Homo sapiens) (UniProt Q12851); assay: Inhibition of N-terminal GST-fused full length human MAP4K2 (1 to 820 residues) expressed in baculovirus expression system using S6K2 peptide as substrate at 1 uM in presence of ATP by Mobility shift assay
[7] = target: cAMP-dependent protein kinase catalytic subunit gamma (Homo sapiens) (UniProt P22612); assay: Inhibition of N-terminal GST-tagged full length human PKACgamma (1 to 351 residues) expressed in baculovirus expression system using Kemptide as substrate at 1 uM in presence of ATP by Mobility shift assay
[8] = target: MAP kinase-interacting serine/threonine-protein kinase 2 (Homo sapiens) (UniProt Q9HBH9); assay: Inhibition of N-terminal GST-fused full length human MNK2 (1 to 465 residues) expressed in baculovirus expression system using RS peptide as substrate at 1 uM in presence of ATP by Mobility shift assay
[9] = target: Serine/threonine-protein kinase SIK1 (Homo sapiens) (UniProt P57059); assay: Inhibition of N-terminal GST-fused full length human SIK (1 to 783 residues) expressed in baculovirus expression system using AMARA peptide as substrate at 1 uM in presence of ATP by Mobility shift assay
[10] = target: BDNF/NT-3 growth factors receptor (Homo sapiens) (UniProt Q16620); assay: Inhibition of N-terminal GST-tagged human TRKB cytoplasmic domain (456 to 822 residues) expressed in baculovirus-infected Sf21 cells using Srctide as substrate at 1 uM in presence of ATP by Mobility shift assay
[11] = target: Fibroblast growth factor receptor 3 (Homo sapiens) (UniProt P22607); assay: Inhibition of N-terminal GST-fused human FGFR3 cytoplasmic domain (436 to 806 residues) expressed in baculovirus-infected Sf21 cells using CSKtide as substrate at 1 uM in presence of ATP by Mobility shift assay
[12] = target: Serine/threonine-protein kinase 4 (Homo sapiens) (UniProt Q13043); assay: Inhibition of N-terminal GST-fused full length human MST1 (1 to 487 residues) expressed in baculovirus expression system using IRS1 as substrate at 1 uM in presence of ATP by Mobility shift assay
[13] = target: Mitogen-activated protein kinase 7 (Homo sapiens) (UniProt Q13164); assay: Inhibition of N-terminal GST-fused human ERK5 catalytic domain (1 to 398 residues) expressed in Escherichia coli expression system using EGFR-derived peptide as substrate at 1 uM in presence of ATP by Mobility shift assay
[14] = target: Fibroblast growth factor receptor 2 (Homo sapiens) (UniProt P21802); assay: Inhibition of N-terminal GST-fused human FGFR2 cytoplasmic domain (399 to 821 residues) expressed in baculovirus-infected Sf21 cells using CSKtide as substrate at 1 uM in presence of ATP by Mobility shift assay
[15] = target: Ephrin type-A receptor 4 (Homo sapiens) (UniProt P54764); assay: Inhibition of N-terminal GST-fused human EPHA4 cytoplasmic domain (586 to 986 residues) expressed in baculovirus-infected Sf21 cells using Blk/Lyntide as substrate at 1 uM in presence of ATP by Mobility shift assay
[16] = target: Casein kinase I isoform delta (Homo sapiens) (UniProt P48730); assay: Inhibition of N-terminal GST-fused human CK1delta catalytic domain (1 to 294 residues) expressed in Escherichia coli expression system using CKtide as substrate at 1 uM in presence of ATP by Mobility shift assay
[17] = target: Leukocyte tyrosine kinase receptor (Homo sapiens) (UniProt P29376); assay: Inhibition of N-terminal GST-tagged human LTK catalytic domain (498 to 796 residues) expressed in baculovirus-infected Sf21 cells using Srctide as substrate at 1 uM in presence of ATP by Mobility shift assay
[18] = target: Ephrin type-A receptor 1 (Homo sapiens) (UniProt P21709); assay: Inhibition of N-terminal GST-fused human EPHA1 cytoplasmic domain (586 to 976 residues) expressed in baculovirus-infected Sf21 cells using Blk/Lyntide as substrate at 1 uM in presence of ATP by Mobility shift assay
[19] = target: Protein kinase C eta type (Homo sapiens) (UniProt P24723); assay: Inhibition of N-terminal GST-fused human full length PKC-eta (1 to 683 residues ) expressed in baculovirus expression system using PKC peptide as substrate at 1 uM in presence of ATP by Mobility shift assay
[20] = target: Protein kinase C theta type (Homo sapiens) (UniProt Q04759); assay: Inhibition of N-terminal GST-fused human full length PKC-theta (1 to 706 residues ) expressed in baculovirus expression system using PKC peptide as substrate at 1 uM in presence of ATP by Mobility shift assay
[21] = target: Serine/threonine-protein kinase 38 (Homo sapiens) (UniProt Q15208); assay: Inhibition of N-terminal GST-fused full length human NDR1 (1 to 465 residues) expressed in baculovirus expression system using SGKtide as substrate at 1 uM in presence of ATP by Mobility shift assay
[22] = target: Interleukin-1 receptor-associated kinase 4 (Homo sapiens) (UniProt Q9NWZ3); assay: Inhibition of N-terminal GST-fused full length human IRAK4 (1 to 460 residues) expressed in baculovirus expression system using IRAK1 peptide as substrate at 1 uM in presence of ATP by Mobility shift assay
[23] = target: Ribosomal protein S6 kinase alpha-1 (Homo sapiens) (UniProt Q15418); assay: Inhibition of N-terminal GST-fused human full length RSK1 (1 to 735 residues) expressed in baculovirus expression system using S6K peptide(N-FL) as substrate at 1 uM in presence of ATP by Mobility shift assay

Sequence of Fibroblast growth factor receptor 3 (Homo sapiens) (P22607 23-806 limits assumed): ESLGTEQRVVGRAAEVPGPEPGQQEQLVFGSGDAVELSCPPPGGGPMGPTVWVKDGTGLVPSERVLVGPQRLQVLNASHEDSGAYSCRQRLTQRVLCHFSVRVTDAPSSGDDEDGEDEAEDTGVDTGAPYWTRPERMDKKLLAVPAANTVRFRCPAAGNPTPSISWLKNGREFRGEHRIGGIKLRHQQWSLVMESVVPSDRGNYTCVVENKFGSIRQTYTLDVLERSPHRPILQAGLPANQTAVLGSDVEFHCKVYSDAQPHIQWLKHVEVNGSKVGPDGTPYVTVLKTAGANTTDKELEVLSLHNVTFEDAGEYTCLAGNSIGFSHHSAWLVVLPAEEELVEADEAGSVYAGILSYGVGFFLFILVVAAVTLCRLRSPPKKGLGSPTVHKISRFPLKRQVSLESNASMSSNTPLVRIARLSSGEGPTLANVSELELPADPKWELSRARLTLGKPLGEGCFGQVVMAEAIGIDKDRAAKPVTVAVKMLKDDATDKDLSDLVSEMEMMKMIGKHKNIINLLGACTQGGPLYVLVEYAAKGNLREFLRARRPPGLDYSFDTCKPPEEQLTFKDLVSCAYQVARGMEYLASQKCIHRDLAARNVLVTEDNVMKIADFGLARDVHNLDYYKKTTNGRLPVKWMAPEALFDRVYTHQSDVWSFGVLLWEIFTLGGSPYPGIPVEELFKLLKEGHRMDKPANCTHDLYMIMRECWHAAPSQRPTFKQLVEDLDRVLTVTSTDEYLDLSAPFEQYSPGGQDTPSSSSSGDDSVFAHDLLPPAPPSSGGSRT
Sequence of Leukocyte tyrosine kinase receptor (Homo sapiens) (P29376 whole entry, the tested form may be a part): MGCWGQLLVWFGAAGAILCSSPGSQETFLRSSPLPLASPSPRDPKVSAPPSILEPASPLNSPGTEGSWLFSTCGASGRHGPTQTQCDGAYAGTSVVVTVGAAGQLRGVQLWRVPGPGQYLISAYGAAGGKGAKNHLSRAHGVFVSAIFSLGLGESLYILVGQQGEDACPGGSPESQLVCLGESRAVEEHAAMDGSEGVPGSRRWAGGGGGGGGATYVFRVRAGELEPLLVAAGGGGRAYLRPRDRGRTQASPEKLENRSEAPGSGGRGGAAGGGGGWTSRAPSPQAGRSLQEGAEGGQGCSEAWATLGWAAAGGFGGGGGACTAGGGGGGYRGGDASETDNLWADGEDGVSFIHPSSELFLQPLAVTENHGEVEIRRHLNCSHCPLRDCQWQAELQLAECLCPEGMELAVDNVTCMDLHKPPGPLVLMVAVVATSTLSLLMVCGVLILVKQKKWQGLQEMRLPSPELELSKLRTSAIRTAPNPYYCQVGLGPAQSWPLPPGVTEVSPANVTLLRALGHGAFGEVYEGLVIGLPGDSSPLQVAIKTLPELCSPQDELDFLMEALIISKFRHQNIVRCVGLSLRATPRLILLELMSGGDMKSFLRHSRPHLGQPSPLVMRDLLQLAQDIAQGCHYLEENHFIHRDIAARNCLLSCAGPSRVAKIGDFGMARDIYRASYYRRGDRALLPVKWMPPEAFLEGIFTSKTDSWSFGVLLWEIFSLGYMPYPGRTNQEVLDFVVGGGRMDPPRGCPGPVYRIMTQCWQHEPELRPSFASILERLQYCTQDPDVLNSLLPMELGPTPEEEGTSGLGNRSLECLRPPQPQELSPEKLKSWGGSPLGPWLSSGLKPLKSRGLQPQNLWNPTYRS
Sequence of MAP/microtubule affinity-regulating kinase 3 (Homo sapiens) (P27448 whole entry, looked up, the tested form may be a part): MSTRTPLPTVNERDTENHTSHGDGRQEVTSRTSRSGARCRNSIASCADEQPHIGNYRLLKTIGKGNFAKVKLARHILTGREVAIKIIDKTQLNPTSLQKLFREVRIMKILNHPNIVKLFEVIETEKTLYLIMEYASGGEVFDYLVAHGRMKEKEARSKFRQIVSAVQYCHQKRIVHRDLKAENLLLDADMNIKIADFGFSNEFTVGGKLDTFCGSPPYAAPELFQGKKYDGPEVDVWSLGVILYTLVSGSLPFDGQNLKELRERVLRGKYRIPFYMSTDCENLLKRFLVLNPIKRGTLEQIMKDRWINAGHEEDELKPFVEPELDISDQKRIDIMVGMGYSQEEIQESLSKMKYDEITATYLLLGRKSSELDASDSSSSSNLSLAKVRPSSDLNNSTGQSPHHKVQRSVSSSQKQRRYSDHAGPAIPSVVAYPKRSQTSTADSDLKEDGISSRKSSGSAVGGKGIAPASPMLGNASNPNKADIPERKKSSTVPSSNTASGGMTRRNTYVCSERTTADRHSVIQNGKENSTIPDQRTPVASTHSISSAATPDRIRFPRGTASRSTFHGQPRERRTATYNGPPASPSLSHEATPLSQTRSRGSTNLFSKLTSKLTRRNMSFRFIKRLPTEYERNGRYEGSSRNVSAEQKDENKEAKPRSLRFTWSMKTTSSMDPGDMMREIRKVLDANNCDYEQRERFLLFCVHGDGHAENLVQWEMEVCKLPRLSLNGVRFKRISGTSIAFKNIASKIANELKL
Sequence of Misshapen-like kinase 1 (Homo sapiens) (Q8N4C8 whole entry, looked up, the tested form may be a part): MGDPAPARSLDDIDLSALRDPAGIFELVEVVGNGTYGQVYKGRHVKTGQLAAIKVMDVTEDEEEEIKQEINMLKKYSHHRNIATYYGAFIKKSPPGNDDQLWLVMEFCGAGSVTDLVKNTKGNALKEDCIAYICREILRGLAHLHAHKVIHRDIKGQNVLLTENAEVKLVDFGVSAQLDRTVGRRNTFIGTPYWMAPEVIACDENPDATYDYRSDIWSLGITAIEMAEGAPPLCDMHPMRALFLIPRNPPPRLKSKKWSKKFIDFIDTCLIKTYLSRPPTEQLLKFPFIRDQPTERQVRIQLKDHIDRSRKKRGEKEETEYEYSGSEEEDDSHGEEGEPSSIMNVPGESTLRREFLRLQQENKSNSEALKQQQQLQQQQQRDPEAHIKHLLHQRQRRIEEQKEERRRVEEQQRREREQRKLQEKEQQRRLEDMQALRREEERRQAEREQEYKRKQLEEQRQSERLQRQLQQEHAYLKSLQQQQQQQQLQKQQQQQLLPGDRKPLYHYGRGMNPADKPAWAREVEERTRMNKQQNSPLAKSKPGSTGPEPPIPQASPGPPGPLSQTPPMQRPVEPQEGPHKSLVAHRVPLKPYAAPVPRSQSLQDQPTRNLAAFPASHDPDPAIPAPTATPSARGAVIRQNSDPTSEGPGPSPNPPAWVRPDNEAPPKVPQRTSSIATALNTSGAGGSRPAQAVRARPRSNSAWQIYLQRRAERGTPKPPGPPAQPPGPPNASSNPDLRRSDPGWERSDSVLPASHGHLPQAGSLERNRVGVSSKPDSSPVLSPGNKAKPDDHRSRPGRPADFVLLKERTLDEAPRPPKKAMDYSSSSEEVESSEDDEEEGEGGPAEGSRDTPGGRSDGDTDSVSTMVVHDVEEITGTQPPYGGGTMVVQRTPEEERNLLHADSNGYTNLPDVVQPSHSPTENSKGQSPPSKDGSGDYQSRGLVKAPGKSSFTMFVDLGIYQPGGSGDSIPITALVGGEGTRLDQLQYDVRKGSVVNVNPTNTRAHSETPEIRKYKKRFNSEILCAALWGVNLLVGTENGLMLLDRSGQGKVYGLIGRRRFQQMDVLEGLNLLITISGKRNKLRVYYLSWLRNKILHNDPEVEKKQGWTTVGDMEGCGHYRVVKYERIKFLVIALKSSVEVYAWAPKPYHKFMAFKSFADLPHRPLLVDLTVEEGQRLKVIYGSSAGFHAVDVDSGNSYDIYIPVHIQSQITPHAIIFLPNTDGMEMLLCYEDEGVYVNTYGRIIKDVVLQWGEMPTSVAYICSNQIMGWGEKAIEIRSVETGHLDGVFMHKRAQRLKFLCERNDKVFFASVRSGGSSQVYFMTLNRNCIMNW
Sequence of Serine/threonine-protein kinase SIK1 (Homo sapiens) (P57059 whole entry, the tested form may be a part): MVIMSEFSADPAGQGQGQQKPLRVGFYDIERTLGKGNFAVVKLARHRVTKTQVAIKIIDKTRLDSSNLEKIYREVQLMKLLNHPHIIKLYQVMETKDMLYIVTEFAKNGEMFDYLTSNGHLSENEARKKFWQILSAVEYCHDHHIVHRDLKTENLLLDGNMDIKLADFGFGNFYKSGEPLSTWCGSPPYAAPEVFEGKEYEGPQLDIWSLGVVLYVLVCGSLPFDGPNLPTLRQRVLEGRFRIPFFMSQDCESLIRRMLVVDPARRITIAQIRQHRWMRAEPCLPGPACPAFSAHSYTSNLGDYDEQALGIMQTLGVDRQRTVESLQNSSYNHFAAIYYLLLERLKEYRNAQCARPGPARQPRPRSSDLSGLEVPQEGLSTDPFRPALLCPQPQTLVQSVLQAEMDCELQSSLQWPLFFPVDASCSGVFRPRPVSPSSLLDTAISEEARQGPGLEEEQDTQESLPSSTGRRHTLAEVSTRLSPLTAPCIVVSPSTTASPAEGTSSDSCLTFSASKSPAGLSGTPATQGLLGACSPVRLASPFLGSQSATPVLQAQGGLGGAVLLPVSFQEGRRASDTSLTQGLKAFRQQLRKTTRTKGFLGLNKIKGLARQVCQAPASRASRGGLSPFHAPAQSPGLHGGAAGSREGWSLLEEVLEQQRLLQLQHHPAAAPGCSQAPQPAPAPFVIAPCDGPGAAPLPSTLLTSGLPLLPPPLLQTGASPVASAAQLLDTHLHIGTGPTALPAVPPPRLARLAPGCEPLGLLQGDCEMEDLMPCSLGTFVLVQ
Sequence of MAP kinase-interacting serine/threonine-protein kinase 2 (Homo sapiens) (Q9HBH9 whole entry, looked up, the tested form may be a part): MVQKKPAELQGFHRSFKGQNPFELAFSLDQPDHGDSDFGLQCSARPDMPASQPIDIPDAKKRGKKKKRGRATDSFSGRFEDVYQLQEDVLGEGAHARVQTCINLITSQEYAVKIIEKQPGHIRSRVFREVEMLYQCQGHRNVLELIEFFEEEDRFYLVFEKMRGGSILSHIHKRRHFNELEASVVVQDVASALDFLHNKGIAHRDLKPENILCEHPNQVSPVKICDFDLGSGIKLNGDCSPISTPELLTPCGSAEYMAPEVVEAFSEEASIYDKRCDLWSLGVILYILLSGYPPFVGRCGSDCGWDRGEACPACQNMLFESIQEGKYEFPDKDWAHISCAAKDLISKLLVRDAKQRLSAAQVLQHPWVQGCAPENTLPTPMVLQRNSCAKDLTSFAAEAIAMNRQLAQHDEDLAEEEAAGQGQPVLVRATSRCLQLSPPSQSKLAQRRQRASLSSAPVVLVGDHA

Structure (SMILES): Cc1cc(C)c(CNC(=O)c2cc(Br)c3c(c2C)O[C@@](C)([C@H]2CC[C@H](N(C)C)CC2)O3)c(=O)[nH]1
- inhibition [1]: -1.3%
- inhibition [2]: 0.7%
- inhibition [3]: -0.2%
- inhibition [4]: -3.1%
- inhibition [5]: -2.6%
- inhibition [6]: 4.5%
- inhibition [7]: -1.4%
- inhibition [8]: 7.2%
- inhibition [9]: -3.1%
- inhibition [10]: -2.8%
- inhibition [11]: -1.9%
- inhibition [12]: -2.7%
- inhibition [13]: -2.5%
- inhibition [14]: -2.6%
- inhibition [15]: -4.3%
- inhibition [16]: -3%
- inhibition [17]: -3.2%
- inhibition [18]: -2.8%
- inhibition [19]: 10.8%
- inhibition [20]: 6.6%
- inhibition [21]: -2.6%
- inhibition [22]: -5.6%
- inhibition [23]: -6.4%

Structure (SMILES): Cc1cc(C)c(CNC(=O)c2cc(Cl)c3c(c2C)O[C@@](C)([C@H]2CC[C@H](N(C)C)CC2)O3)c(=O)[nH]1 [VALEMETOSTAT]
- inhibition [1]: -4.5%
- inhibition [2]: 5.7%
- inhibition [3]: -2.8%
- inhibition [4]: -5%
- inhibition [5]: -4.6%
- inhibition [6]: 2.3%
- inhibition [7]: -2.4%
- inhibition [8]: 8.7%
- inhibition [9]: 6.2%
- inhibition [10]: 0.6%
- inhibition [11]: -2.3%
- inhibition [12]: -1.9%
- inhibition [13]: -2.3%
- inhibition [14]: -4%
- inhibition [15]: -3%
- inhibition [16]: -3.8%
- inhibition [17]: 0.1%
- inhibition [18]: -1.6%
- inhibition [19]: 19.8%
- inhibition [20]: -0.6%
- inhibition [21]: -0.5%
- inhibition [22]: -4.1%
- inhibition [23]: -0.2%
